In publication PMC6631349 (Xenobiotica; the fate of foreign compounds in biological …, 2014):

Key:
UGT1A3 = details: ref Fang et al., 2014b; cited from earlier work
UGT isoforms = test: Initial screening towards all UGT isoforms; type: biochemical, human; details: about 50 μM; isoforms not given
UGT1A8 [1] = biological target: T1, UGT1A8 (Homo sapiens, UniProt Q9HAW9); details: 50 μM
T1 sequence (Q9HAW9 26-530): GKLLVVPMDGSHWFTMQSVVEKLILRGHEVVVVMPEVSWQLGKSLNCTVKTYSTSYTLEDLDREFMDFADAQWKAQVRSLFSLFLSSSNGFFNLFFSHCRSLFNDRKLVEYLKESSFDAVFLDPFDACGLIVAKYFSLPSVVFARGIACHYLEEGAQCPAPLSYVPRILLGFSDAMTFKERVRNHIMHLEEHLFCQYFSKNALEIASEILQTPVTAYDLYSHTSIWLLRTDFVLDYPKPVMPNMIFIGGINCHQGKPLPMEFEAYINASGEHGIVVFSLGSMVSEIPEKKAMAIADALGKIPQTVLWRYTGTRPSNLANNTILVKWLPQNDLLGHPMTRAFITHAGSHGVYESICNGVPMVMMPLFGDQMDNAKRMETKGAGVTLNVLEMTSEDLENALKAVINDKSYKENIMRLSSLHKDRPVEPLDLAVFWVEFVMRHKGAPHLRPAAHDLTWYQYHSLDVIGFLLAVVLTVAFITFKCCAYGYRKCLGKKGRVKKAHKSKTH

UGTs = details: ref Dragacci et al. (1987); cited from earlier work
UGT2B7 = biological target: T2, UGT2B7 (Homo sapiens, UniProt P16662); details: 50 μM
T2 sequence (P16662 24-529): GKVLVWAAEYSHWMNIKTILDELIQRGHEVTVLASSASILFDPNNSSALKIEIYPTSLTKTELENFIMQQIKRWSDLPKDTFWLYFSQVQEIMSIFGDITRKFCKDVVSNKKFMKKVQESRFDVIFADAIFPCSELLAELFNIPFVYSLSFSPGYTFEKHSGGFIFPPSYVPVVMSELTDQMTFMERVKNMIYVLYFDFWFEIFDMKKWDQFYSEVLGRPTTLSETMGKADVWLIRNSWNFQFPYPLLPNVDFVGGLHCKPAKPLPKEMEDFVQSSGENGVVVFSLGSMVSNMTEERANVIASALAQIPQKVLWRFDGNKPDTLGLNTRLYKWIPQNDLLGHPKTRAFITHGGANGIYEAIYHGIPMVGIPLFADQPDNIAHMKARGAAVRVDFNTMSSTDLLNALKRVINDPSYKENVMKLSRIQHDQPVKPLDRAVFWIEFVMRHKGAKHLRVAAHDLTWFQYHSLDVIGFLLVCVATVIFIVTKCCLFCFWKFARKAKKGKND

UGT1A6 [2] = biological target: T3, UGT1A6 (Homo sapiens, UniProt P19224); details: 50 μM
T3 sequence (P19224 27-532): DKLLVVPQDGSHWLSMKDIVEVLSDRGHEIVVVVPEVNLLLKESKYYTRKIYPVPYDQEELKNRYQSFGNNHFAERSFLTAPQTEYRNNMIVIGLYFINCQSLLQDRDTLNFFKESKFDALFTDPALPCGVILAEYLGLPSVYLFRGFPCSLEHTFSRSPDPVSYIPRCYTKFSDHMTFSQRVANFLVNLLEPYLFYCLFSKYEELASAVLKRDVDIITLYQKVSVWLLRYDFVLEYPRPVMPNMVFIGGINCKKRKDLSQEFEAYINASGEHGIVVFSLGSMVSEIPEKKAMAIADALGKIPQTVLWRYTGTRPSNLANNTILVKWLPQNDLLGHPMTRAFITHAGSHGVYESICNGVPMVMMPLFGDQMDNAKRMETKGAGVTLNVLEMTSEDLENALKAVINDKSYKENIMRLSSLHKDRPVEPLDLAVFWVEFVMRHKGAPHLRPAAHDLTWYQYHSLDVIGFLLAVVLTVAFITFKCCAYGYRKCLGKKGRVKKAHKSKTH

UGT1A6 [3] = biological target: T3, UGT1A6; details: Dixon and Lineweaver-Burk plots; 4-MU glucuronidation
UGT1A4 = biological target: T4, UGT1A4 (Homo sapiens, UniProt P22310); test: UGT1A4-catalyzed trifluoperazine; details: recombinant human UGT1A4, probe trifluoperazine (TFP), 40 μM
T4 sequence (P22310 29-534): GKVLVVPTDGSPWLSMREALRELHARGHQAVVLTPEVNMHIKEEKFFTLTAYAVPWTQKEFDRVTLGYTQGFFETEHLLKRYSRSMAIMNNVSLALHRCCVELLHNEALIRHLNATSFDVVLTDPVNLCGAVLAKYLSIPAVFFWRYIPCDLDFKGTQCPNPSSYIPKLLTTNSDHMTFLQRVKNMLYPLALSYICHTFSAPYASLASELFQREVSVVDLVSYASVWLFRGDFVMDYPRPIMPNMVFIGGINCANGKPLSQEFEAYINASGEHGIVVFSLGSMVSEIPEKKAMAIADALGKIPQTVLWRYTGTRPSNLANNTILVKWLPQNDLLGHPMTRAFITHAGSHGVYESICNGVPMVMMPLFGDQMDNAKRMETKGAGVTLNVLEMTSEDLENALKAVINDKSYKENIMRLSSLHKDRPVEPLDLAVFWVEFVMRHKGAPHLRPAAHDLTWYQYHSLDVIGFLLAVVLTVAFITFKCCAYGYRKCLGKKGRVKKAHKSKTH

UGT1A8 [4] = biological target: T1, UGT1A8; details: Dixon and Lineweaver-Burk plots; 4-MU glucuronidation
[5] = tested on: multiple UGT isoforms, including UGT1A1, UGT1A3, UGT1A4, UGT1A7, UGT1A10, UGT2B7 and UGT2B15; details: ref Fang et al., 2013b; cited from earlier work

SMILES: C[C@H](CCC(=O)O)[C@H]1CC[C@H]2[C@@H]3[C@H](O)C[C@@H]4C[C@H](O)CC[C@]4(C)[C@H]3C[C@H](O)[C@]12C [CA, cholic acid]
- effect on the activity of UGT1A3 (in words) (UGT1A3): allosteric activation

SMILES: C[C@H](CCC(=O)NCC(=O)O)[C@H]1CC[C@H]2[C@@H]3[C@H](O)C[C@@H]4C[C@H](O)CC[C@]4(C)[C@H]3C[C@H](O)[C@]12C [GCA, glycocholic acid]
- effect on the activity of UGT1A3 (in words) (UGT1A3): allosteric activation

SMILES: CCCCCCCCCCCCCCCC(=O)OC[C@@H](O)COP(=O)([O-])OCC[N+](C)(C)C [LPC 16:0]
- inhibition of activity of UGT isoforms (UGT isoforms): more than 90%

SMILES: CCCCCCCC/C=C\CCCCCCCC(=O)OC[C@@H](O)COP(=O)([O-])OCC[N+](C)(C)C [LPC 18:1]
- inhibition percentage of UGT1A8 activity (UGT1A8 [1]): 98.7%
- increase for UGTs' activity (maximal regulation capability) (UGTs): approximately 4 fold
- inhibition percentage of UGT2B7 activity (UGT2B7): 87.3%
- inhibition percentage of UGT1A6 activity (UGT1A6 [2]): 97.5%
- inhibition of activity of UGT isoforms (UGT isoforms): more than 90%

SMILES: CCCCCCCCCCCCCCCC(=O)OC[C@H](COP(=O)([O-])OCC[N+](C)(C)C)OC(C)=O [PC 16:0, 2:0, 1-palmitoyl-2-acetyl-sn-glycero-3-phosphocholine]
- inhibition kinetic type towards UGT1A6 (UGT1A6 [3]): competitive inhibition
- activity at 20 min, 50 μM (UGT1A4): 5.5%
- inhibition at 20 min, 50 µM (UGT1A4): 94.5%
- inhibition of activity of UGT isoforms (UGT isoforms): more than 90%
- inhibition kinetic type towards UGT1A8 (UGT1A8 [4]): non-competitively inhibited

SMILES: CCCCCCCCCCCCCCCC(=O)OC[C@H](COP(=O)([O-])OCC[N+](C)(C)C)OC(=O)CCCCCCCCCCCCC [PC 16:0, 14:0, 1-palmitoyl-2-myristoyl-sn-glycero-3-phosphocholine]
- activity at 20 min, 50 μM (UGT1A4): 63.8%

SMILES: CCCCCCCCCCCCCCCCCC(=O)O[C@H](COC(=O)CCCCCCCCCCCCCCC)COP(=O)([O-])OCC[N+](C)(C)C [PC 16:0, 18:0, 1-palmitoyl-2-stearoyl-sn-glycero-3-phosphocholine]
- activity at 20 min, 50 μM (UGT1A4): 90%

SMILES: CCCCCCCC/C=C\CCCCCCCC(=O)O[C@H](COC(=O)CCCCCCCCCCCCCCC)COP(=O)([O-])OCC[N+](C)(C)C [PC 16:0, 18:1, 1-palmitoyl-2-oleoyl-sn-glycero-3-phosphocholine]
- activity at 20 min, 50 μM (UGT1A4): 51.8%

SMILES: CCCCC/C=C\C/C=C\CCCCCCCC(=O)O[C@H](COC(=O)CCCCCCCCCCCCCCCCC)COP(=O)([O-])OCC[N+](C)(C)C [PC 18:0, 18:2, 1-stearoyl-2-linoleoyl-sn-glycero-3-phosphocholine]
- activity at 20 min, 50 μM (UGT1A4): 54.3%

SMILES: CCCCC/C=C\C/C=C\C/C=C\C/C=C\CCCC(=O)O[C@H](COC(=O)CCCCCCCCCCCCCCCCC)COP(=O)([O-])OCC[N+](C)(C)C [PC 18:0, 20:4, 1-stearoyl-2-arachidonoyl-sn-glycero-3-phosphocholine]
- activity at 20 min, 50 μM (UGT1A4): 52.1%

SMILES: CCCCCCCC/C=C\CCCCCCCC(=O)OC[C@H](COP(=O)([O-])OCC[N+](C)(C)C)OC(=O)CCCCCCCCCCCCC [PC 18:1, 14:0, 1-oleoyl-2-myristoyl-sn-glycero-3-phosphocholine]
- activity at 20 min, 50 μM (UGT1A4): 49.8%

SMILES: CCCCCCCC/C=C\CCCCCCCC(=O)OC[C@H](COP(=O)([O-])OCC[N+](C)(C)C)OC(=O)CCCCCCCCCCCCCCC [PC 18:1, 16:0, 1-oleoyl-2-palmitoyl-sn-glycero-3-phosphocholine]
- activity at 20 min, 50 μM (UGT1A4): 52.6%

SMILES: CCCCCCCC/C=C\CCCCCCCC(=O)OC[C@H](COP(=O)([O-])OCC[N+](C)(C)C)OC(=O)CCCCCCCCCCCCCCCCC [PC 18:1, 18:0, 1-oleoyl-2-stearoyl-sn-glycero-3-phosphocholine]
- activity at 20 min, 50 μM (UGT1A4): 60.4%

SMILES: C[C@H](CCC(=O)NCCS(=O)(=O)O)[C@H]1CC[C@H]2[C@@H]3CC[C@@H]4C[C@H](O)CC[C@]4(C)[C@H]3CC[C@]12C [TLCA, taurolithocholic acid]
- inhibitory effects towards multiple UGT isoforms (in words) [5]: strong inhibitory effects
